Test system: T7-Phagen
Details: pH 7

Structure (SMILES)	Kehrwert der pyrimidin-dimeräquivalenten Dosis	1n [N(t)/N(O)]=-1 zugehörige Bebrütungs- beziehungsweise Inkubationszeit	Kehrwert der pyrimidindimeräquivalenten Dosis	pyrimidindimeräquivalente Dosis
CS(=O)(=O)OCCNCC(O)C(O)CNCCOS(C)(=O)=O (stereo not shown) [1,4-Di-{2'-(methylsulfonyl)-oxy-äthylamino}-1,4-di-{desoxy}-ery-thrit-dimethylsulfat]	111 1 Mol . Minute			
CN(Cc1cnc2nc(N)nc(N)c2n1)c1ccc(C(=O)N[C@@H](CCC(=O)O)C(=O)O)cc1 [4-Desoxy-4-amino-10-methylfolsäure]	11 1 Mol . Minute			
CC(=O)N1CC1 [N-(Acetyl)-äthylenimin]	33 1 Mol . Minute			
Cc1ncc(C[n+]2csc(CCO)c2C)c(N)n1 [Vitamin B1]		291 Minuten	0,03 l/Mol· Minute	29 Mol - Minute/I
CN(N=O)C(N)=O [Nitrosomethylharnstoff]	0,76 1 Mol . Minute			

Source: EP0115547B1 (priority 1983, dated 1984)
